How the values were obtained:
dengue virus type 2 = assay: Functional immunofluorescence assay to measure dose dependent changes in antiviral-drug inhibitory efficacy against Dengue virus type 2 Thailand/16681/84 in Vero E6/TMPRSS2 cells (cotreated with P-gp inhibitor, Elacridar). Cells are treated with antiviral candidates that are serially diluted, following infection, cells are fixed. EC50 is reported via analysis of immunofluorescence staining. The assay has been performed by Icahn School of Medicine at Mount Sinai.; type: organism-based, Chlorocebus sabaeus, VeroE6/TMPRSS2; settings: for EC90: P-gp concentration 2 uM, P-gp inhibitor Elacidar
Zika virus = assay: EC50 is reported via analysis of immunofluorescence staining. The assay has been performed by Icahn School of Medicine at Mount Sinai.; type: functional, organism-based, Chlorocebus sabaeus, VeroE6/TMPRSS2

## Cc1ccc2cc(Cl)cc(C(=O)Nc3ccc4c(c3)CNC4)c2n1
Dengue virus type 2; Dengue virus, VeroE6/TMPRSS2
  EC50: > 5.56 µM
Dengue virus type 2; Dengue virus, VeroE6/TMPRSS2, Maximum measured 235.971 %, Minimum measured 154.17 %
  EC90: > 5.56 µM
Zika virus; Zika virus, VeroE6/TMPRSS2
  EC50: > 16.7 µM
Zika virus; Zika virus, VeroE6/TMPRSS2, Maximum measured 117.23 %, Minimum measured 34.966 %, P-gp concentration 2 uM, P-gp inhibitor Elacidar
  EC90: > 16.7 µM

## NS(=O)(=O)c1ccc(C2CCN(Cc3c[nH]c4ccccc34)CC2)cc1
Dengue virus type 2; Dengue virus, VeroE6/TMPRSS2
  EC50: > 50 µM
Dengue virus type 2; Dengue virus, VeroE6/TMPRSS2, Baseline response 0 %, Hill slope -0.438, Maximum measured 120.121 %, Maximum response 100 %, Minimum measured 70.269 %, R squared 0.213
  EC90: > 50 µM
Zika virus; Zika virus, VeroE6/TMPRSS2, Maximum measured 220.71 %, Minimum measured 69.091 %, P-gp concentration 2 uM, P-gp inhibitor Elacidar
  EC90: > 10 µM
Zika virus; Zika virus, VeroE6/TMPRSS2, Baseline response 0 %, Hill slope -0.394, Maximum measured 150.63 %, Maximum response 100 %, Minimum measured 65.565 %, P-gp concentration 2 uM, R squared 0.026, P-gp inhibitor Elacidar
  EC90: > 50 µM
Zika virus; veroe6/tmprss2
  EC50: > 50 µM

## CC[C@H](Cc1nnn[nH]1)c1ccc(NC(=O)c2cc(Cl)cc(-n3cccc3)c2)cc1
Dengue virus type 2; Dengue virus, VeroE6/TMPRSS2
  EC50: 42.5 µM
Dengue virus type 2; Dengue virus, VeroE6/TMPRSS2, Baseline response 0 %, Hill slope -23.366, Maximum measured 115.315 %, Maximum response 100 %, Minimum measured 2.218 %, R squared 0.505
  EC90: 46.7 µM
Zika virus; Zika virus, VeroE6/TMPRSS2
  EC50: 46.8 µM
Zika virus; Zika virus, VeroE6/TMPRSS2, Baseline response 0 %, Hill slope -17.276, Maximum measured 183.537 %, Maximum response 154.104 %, Minimum measured 37.545 %, P-gp concentration 2 uM, R squared 0.817, P-gp inhibitor Elacidar
  EC90: > 50 µM

## O=C(O)c1cc(Cl)ccc1S(=O)(=O)NC1CCN(c2nc(C3CC3)cc(C(F)(F)F)n2)CC1
Dengue virus type 2; Dengue virus, VeroE6/TMPRSS2, Maximum measured 136.17 %, Minimum measured 94.607 %
  EC90: > 16.7 µM
Dengue virus type 2; Dengue virus, VeroE6/TMPRSS2, Baseline response 0 %, Hill slope -0.112, Maximum measured 104.285 %, Maximum response 100 %, Minimum measured 47.241 %, R squared 0.035
  EC90: > 3.33 µM
Dengue virus type 2; veroe6/tmprss2
  EC50: > 16.7 µM
Zika virus; Zika virus, VeroE6/TMPRSS2, Maximum measured 121.005 %, Minimum measured 84.589 %, P-gp concentration 2 uM, P-gp inhibitor Elacidar
  EC90: > 16.7 µM
Zika virus; Zika virus, VeroE6/TMPRSS2, Baseline response 0 %, Hill slope -0.273, Maximum measured 117.096 %, Maximum response 100 %, Minimum measured 55.547 %, P-gp concentration 2 uM, R squared 0.133, P-gp inhibitor Elacidar
  EC90: > 3.33 µM
Zika virus; veroe6/tmprss2
  EC50: > 16.7 µM

## NCc1cccc(NC(=O)[C@H]2[C@H]3CCCCC[C@H]3[C@H]2NC(=O)OCc2ccccc2)c1
Dengue virus type 2; Dengue virus, VeroE6/TMPRSS2
  EC50: > 5.56 µM
Dengue virus type 2; Dengue virus, VeroE6/TMPRSS2, Baseline response 0 %, Hill slope -0.21, Maximum measured 66.083 %, Maximum response 100 %, Minimum measured 25.848 %, R squared 0.326
  EC90: > 5.56 µM
Zika virus; Zika virus, VeroE6/TMPRSS2
  EC50: 1.43 µM
  EC90: 9.76 µM

## O=C(Nc1cc(Cl)cc(C(=O)Nc2cccc([C@H]3CCNC3)c2)c1)OCc1ccccc1
Dengue virus type 2; Dengue virus, VeroE6/TMPRSS2
  EC50: > 5.56 µM
Dengue virus type 2; Dengue virus, VeroE6/TMPRSS2, Maximum measured 260.488 %, Minimum measured 106.051 %
  EC90: > 5.56 µM
Zika virus; Zika virus, VeroE6/TMPRSS2
  EC50: 42.7 µM
Zika virus; Zika virus, VeroE6/TMPRSS2, Baseline response 0 %, Hill slope -21.619, Maximum measured 167.541 %, Maximum response 100 %, Minimum measured 3.263 %, P-gp concentration 2 uM, R squared 0.234, P-gp inhibitor Elacidar
  EC90: 47.3 µM

## O=C(Nc1cnc2c(c1)CNCC2)c1cc(Cl)cc2[nH]ncc12
Dengue virus type 2; Dengue virus, VeroE6/TMPRSS2
  EC50: > 50 µM
Dengue virus type 2; Dengue virus, VeroE6/TMPRSS2, Maximum measured 104.893 %, Minimum measured 59 %
  EC90: > 50 µM
Zika virus; Zika virus, VeroE6/TMPRSS2
  EC50: 45.4 µM
Zika virus; Zika virus, VeroE6/TMPRSS2, Baseline response 0 %, Hill slope -15.177, Maximum measured 54.077 %, Maximum response 44.083 %, Minimum measured 8.284 %, P-gp concentration 2 uM, R squared 0.548, P-gp inhibitor Elacidar
  EC90: > 50 µM

## C[C@@H](N)c1cccc(NC(=O)[C@H]2[C@H]3CCCCC[C@H]3[C@H]2NC(=O)OCc2ccccc2)c1
Dengue virus type 2; Dengue virus, VeroE6/TMPRSS2
  EC50: > 5.56 µM
Dengue virus type 2; Dengue virus, VeroE6/TMPRSS2, Baseline response 0 %, Hill slope -0.267, Maximum measured 104.495 %, Maximum response 100 %, Minimum measured 46.505 %, R squared 0.299
  EC90: > 5.56 µM
Zika virus; Zika virus, VeroE6/TMPRSS2
  EC50: > 5.56 µM
Zika virus; Zika virus, VeroE6/TMPRSS2, Maximum measured 138.527 %, Minimum measured 84.272 %, P-gp concentration 2 uM, P-gp inhibitor Elacidar
  EC90: > 5.56 µM

## CC(=O)Nc1cc(Cl)cc(C(=O)Nc2cccc(CN)c2)c1
Dengue virus type 2; Dengue virus, VeroE6/TMPRSS2
  EC50: > 16.7 µM
Dengue virus type 2; Dengue virus, VeroE6/TMPRSS2, Maximum measured 143.919 %, Minimum measured 91.997 %
  EC90: > 16.7 µM
Zika virus; Zika virus, VeroE6/TMPRSS2
  EC50: > 50 µM
Zika virus; Zika virus, VeroE6/TMPRSS2, Baseline response 0 %, Hill slope 0.296, Maximum measured 131.154 %, Maximum response 100 %, Minimum measured 80.704 %, P-gp concentration 2 uM, R squared 0.041, P-gp inhibitor Elacidar
  EC90: > 50 µM

## CCOC(=O)[C@H]1[C@H](c2cc(Cl)cc(NC(=O)OCc3ccccc3)c2)[C@H]1c1cccc(-c2nnn[nH]2)c1
Dengue virus type 2; Dengue virus, VeroE6/TMPRSS2
  EC50: 10.1 µM
Dengue virus type 2; Dengue virus, VeroE6/TMPRSS2, Baseline response 0 %, Hill slope -0.678, Maximum measured 159.228 %, Maximum response 100 %, Minimum measured 7.966 %, R squared 0.513
  EC90: > 50 µM
Zika virus; Zika virus, VeroE6/TMPRSS2
  EC50: 39.5 µM
Zika virus; Zika virus, VeroE6/TMPRSS2, Baseline response 0 %, Hill slope -17.688, Maximum measured 145.242 %, Maximum response 100 %, Minimum measured 1.538 %, P-gp concentration 2 uM, R squared 0.641, P-gp inhibitor Elacidar
  EC90: 44.8 µM
